Reference: US9814761B2, “Compositions, methods and assays comprising amylin or amlyin analogs for abeta-peptide mediated disorders” (TRUSTEES OF BOSTON UNIVERSITY, priority 2012, dated 2017)
Entries after “also recorded” stand apart in the source; their conditions may differ. Blank lines part the entries; values can stand above or below the molecule they belong to.

Experiments:
[1] = target: T1, IDE (insulin degrading enzyme) (Mus musculus, UniProt Q9JHR7); assay: pre-treatment with IDE inhibitor followed by amylin challenge, serum Aβ; assay type: in vivo; conditions: Tg2576 mice pre-treated with 1-10 phenonthrolin, then amylin challenge
T1 construct: endogenous in cells; host or cells: Tg2576 (APP transgenic) mice, whole animal, i.p. dosing
T1 sequence (Q9JHR7 1-1019): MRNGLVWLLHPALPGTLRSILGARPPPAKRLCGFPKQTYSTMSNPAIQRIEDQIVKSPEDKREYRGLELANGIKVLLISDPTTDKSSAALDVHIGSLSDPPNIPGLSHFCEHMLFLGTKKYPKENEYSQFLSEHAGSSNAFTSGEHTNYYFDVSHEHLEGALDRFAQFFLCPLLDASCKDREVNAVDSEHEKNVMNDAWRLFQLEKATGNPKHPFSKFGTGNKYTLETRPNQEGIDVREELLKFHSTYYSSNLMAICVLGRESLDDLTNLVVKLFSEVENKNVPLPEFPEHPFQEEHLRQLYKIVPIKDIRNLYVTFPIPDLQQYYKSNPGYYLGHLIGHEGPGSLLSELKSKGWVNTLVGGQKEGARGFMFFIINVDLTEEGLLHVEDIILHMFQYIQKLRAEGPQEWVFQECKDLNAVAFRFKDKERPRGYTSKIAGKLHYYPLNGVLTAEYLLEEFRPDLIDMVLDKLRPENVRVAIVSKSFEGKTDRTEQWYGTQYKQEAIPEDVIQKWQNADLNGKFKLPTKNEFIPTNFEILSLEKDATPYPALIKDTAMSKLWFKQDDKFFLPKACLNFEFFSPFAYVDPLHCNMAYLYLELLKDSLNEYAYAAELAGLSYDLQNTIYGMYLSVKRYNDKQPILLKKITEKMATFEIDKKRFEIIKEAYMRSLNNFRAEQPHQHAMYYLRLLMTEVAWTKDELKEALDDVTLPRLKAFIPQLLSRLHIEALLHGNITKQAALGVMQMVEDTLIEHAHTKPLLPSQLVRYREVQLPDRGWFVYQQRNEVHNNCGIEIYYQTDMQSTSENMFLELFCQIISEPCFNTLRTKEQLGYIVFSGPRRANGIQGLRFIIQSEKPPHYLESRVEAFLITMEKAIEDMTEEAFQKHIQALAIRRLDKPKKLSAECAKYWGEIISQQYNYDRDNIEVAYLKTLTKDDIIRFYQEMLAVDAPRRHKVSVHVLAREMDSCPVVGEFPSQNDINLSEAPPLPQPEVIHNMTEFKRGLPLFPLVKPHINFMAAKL
Description: Tg2576 mice were used for the amylin challenge test. The mice received blood draws before any treatment. Then the mice had intraperitoneally injection (i.p) of PBS, AC253 (amylin receptor antagonist) or 1,10-phenonthrolin (IDE inhibitor) and received another blood draw 24 hrs post the treatment followed by i.p amylin (20 mg/kg). The final blood draw was conducted after 24 hrs post i.p amylin. Serum Aβ1-40 (5A) and Aβ1-42 (5B) were measured by using the ELISA assays. The levels of serum Aβ1-40 and Aβ1-42 at pre-injection of amylin were treated as 1 s, and the relative fold increases with different treatments were calculated and compared with the pre-injection level by using two-way ANOVA. P values for statistical significance are shown.
As amylin and Aβ are degraded by the same protease, IDE, we next pre-treated the Tg2576 mice with 1-10 phenonthrolin, a metalloprotease inhibitor to inhibit the activity of IDE, followed by the amylin challenge. It was next tested whether CTR/RAMP3 and IDE form a complex in this process to regulate Aβ in the brain. […] Another experiment with IDE immunoprecipitation and then RAMP3 western blot also illustrated the complex.

plasma Aβ1-40 and Aβ1-42 = assay: pramlintide challenge in two human subjects, plasma Aβ1-40 and Aβ1-42; assay type: in vivo; conditions: pramlintide 60 mcg s.c.
Description: (§1) Subcutaneous injections of one dose of pramlintide (60 mcg) was performed in two subjects followed in the research registry of the BU ADC, one control and one probable Alzheimer's disease. Blood was drawn to collect plasma samples before the injection and at 5, 30, 60 and 180 minutes after the injection. Vital signs and blood glucose were monitored at these time points and prior to discharge of the subject from the facility. One hour after the injection, the subjects were offered a standard meal. Plasma Aβ1-40 and Aβ1-42 were measured (Table 2). […] The human results provided herein are encouraging, in part, because the dose of pramlintide (60 mcg) used was only moderate.

mouse models = assay: daily dosing in mouse models, memory functions; assay type: in vivo, mice
[2] = blood (stick) glucose monitored after pramlintide injection in two human subjects; assay type: in vivo; conditions: pramlintide 60 mcg s.c.
Description: as §1

surges of serum Aβ at 24 hrs post the peripheral injection of amylin [1]: completely blocked
SMILES: c1cnc2c(c1)ccc1cccnc12 [1-10 phenonthrolin, 1,10-phenonthrolin]

Glucose ([2]; AD subject, post 5', pre-injection 85): 91 mg/dL | Glucose ([2]; AD subject, post 30', pre-injection 85): 88 mg/dL | Glucose ([2]; AD subject, post 60', pre-injection 85, standard meal offered one hour after injection): 135 mg/dL | Glucose ([2]; AD subject, post 180', pre-injection 85, standard meal offered one hour after injection): 115 mg/dL | Glucose ([2]; control subject, post 5', pre-injection 115): 108 mg/dL | Glucose ([2]; control subject, post 30', pre-injection 115): 115 mg/dL | Glucose ([2]; control subject, post 60', pre-injection 115, standard meal offered one hour after injection): 114 mg/dL | Glucose ([2]; control subject, post 180', pre-injection 115, standard meal offered one hour after injection): 149 mg/dL
SMILES: CC[C@H](C)[C@H](NC(=O)[C@@H]1CCCN1C(=O)CNC(=O)[C@H](Cc1ccccc1)NC(=O)[C@H](CC(N)=O)NC(=O)[C@H](CC(N)=O)NC(=O)[C@H](CO)NC(=O)[C@H](CO)NC(=O)[C@H](Cc1c[nH]cn1)NC(=O)[C@@H](NC(=O)[C@H](CC(C)C)NC(=O)[C@H](Cc1ccccc1)NC(=O)[C@H](CC(N)=O)NC(=O)[C@H](C)NC(=O)[C@H](CC(C)C)NC(=O)[C@H](CCCNC(=N)N)NC(=O)[C@H](CCC(N)=O)NC(=O)[C@@H](NC(=O)[C@H](C)NC(=O)[C@@H]1CSSC[C@H](NC(=O)[C@@H](N)CCCCN)C(=O)N[C@@H](CC(N)=O)C(=O)N[C@@H]([C@@H](C)O)C(=O)N[C@@H](C)C(=O)N[C@@H]([C@@H](C)O)C(=O)N1)[C@@H](C)O)C(C)C)C(=O)N[C@@H](CC(C)C)C(=O)N1CCC[C@H]1C(=O)N1CCC[C@H]1C(=O)N[C@H](C(=O)N[C@@H](CC(N)=O)C(=O)N[C@H](C(=O)NCC(=O)N[C@@H](CO)C(=O)N[C@@H](CC(N)=O)C(=O)N[C@H](C(=O)N[C@@H](Cc1ccc(O)cc1)C(N)=O)[C@@H](C)O)C(C)C)[C@@H](C)O [pramlintide]
plasma Aβ1-42 (plasma Aβ1-40 and Aβ1-42; AD subject, post 5', pre-injection 27.0): 29.0 pg/mL | plasma Aβ1-40 (plasma Aβ1-40 and Aβ1-42; AD subject, post 5', pre-injection 180.6): 160.8 pg/mL | plasma Aβ1-42 (plasma Aβ1-40 and Aβ1-42; AD subject, post 30', pre-injection 27.0): 31.8 pg/mL | plasma Aβ1-40 (plasma Aβ1-40 and Aβ1-42; AD subject, post 30', pre-injection 180.6): 161.0 pg/mL | plasma Aβ1-42 (plasma Aβ1-40 and Aβ1-42; AD subject, post 60', pre-injection 27.0): 26.6 pg/mL | plasma Aβ1-40 (plasma Aβ1-40 and Aβ1-42; AD subject, post 60', pre-injection 180.6): 129.4 pg/mL | plasma Aβ1-42 (plasma Aβ1-40 and Aβ1-42; AD subject, post 180', pre-injection 27.0): 22.0 pg/mL | plasma Aβ1-40 (plasma Aβ1-40 and Aβ1-42; AD subject, post 180', pre-injection 180.6): 104.6 pg/mL | plasma Aβ1-42 (plasma Aβ1-40 and Aβ1-42; control subject, post 5', pre-injection 29.9): 26.0 pg/mL | plasma Aβ1-40 (plasma Aβ1-40 and Aβ1-42; control subject, post 5', pre-injection 148.4): 178.4 pg/mL | plasma Aβ1-42 (plasma Aβ1-40 and Aβ1-42; control subject, post 30', pre-injection 29.9): 27.5 pg/mL | plasma Aβ1-40 (plasma Aβ1-40 and Aβ1-42; control subject, post 30', pre-injection 148.4): 150.4 pg/mL | plasma Aβ1-42 (plasma Aβ1-40 and Aβ1-42; control subject, post 60', pre-injection 29.9): 21.7 pg/mL | plasma Aβ1-40 (plasma Aβ1-40 and Aβ1-42; control subject, post 60', pre-injection 148.4): 110.5 pg/mL | plasma Aβ1-42 (plasma Aβ1-40 and Aβ1-42; control subject, post 180', pre-injection 29.9): 10.6 pg/mL | plasma Aβ1-40 (plasma Aβ1-40 and Aβ1-42; control subject, post 180', pre-injection 148.4): 100.8 pg/mL | memory functions / cognition (mouse models): increased memory functions; also recorded: led to cognitive improvements
